What was measured:
CDK12/CycK complex [1] = molecular target: T1, CDK12/CycK complex (Homo sapiens, UniProt Q9NYV4); assay: Measurement of CDK12 inhibitory activity by binding assay (TR-FRET, 66 nM BODIPY-FL-labeled AT-7519); details: inhibitory rate against CDK12 at 1 μM test compound, 66 nM BODIPY-FL-labeled AT-7519, 2 nM CDK12/CycK
Procedure: Experimental Example 1: CDK12 Binding Assay
(3) Measurement of CDK12 Inhibitory Activity by Binding Assay
(§1) His-tagged CDK12/CycK complex was added to a binding assay buffer supplemented with BODIPY-FL labeled AT-7519, terbium-labeled streptavidin and biotin-labeled anti-histidine antibody, and the mixture was stood for not less than 60 min at room temperature. This solution was added to an assay plate containing a test compound dispensed therein, and the mixture was left standing for 120 min at room temperature. The final concentration of CDK12/CycK complex, BODIPY-FL-labeled AT-7519, terbium-labeled streptavidin and biotin-labeled anti-histidine antibody was set to 2 nM, 66 nM, 0.2 nM, and 0.4 nM, respectively. The fluorescence intensity derived from terbium and BODIPY-FL was measured using Envision. The signal value of each well was determined using the TR-FRET ratio calculated by the following formula. TR-FRET ratio=(fluorescence value of BODIPY-FL)÷(fluorescence value of terbium)
(§2) The inhibitory rate (%) of the test compound against CDK12 was calculated by the following formula. Inhibitory rate (%)=(1−(TR-FRET ratio of test compound−blank)÷(control−blank))×100
The TR-FRET ratio of the CDK12 enzyme reaction mixture under compound non-addition conditions is indicated as control, and the TR-FRET ratio under 3 μM AT-7519 addition conditions is indicated as blank.
The inhibitory rate of the test compound against CDK12 at […] is shown below.

A2780 cells = assay: In vitro proliferation suppression test (CellTiter-Glo); type: cell-based, human; details: Homo sapiens, 72 h, A2780 cell proliferation inhibitory rate at 1 μM test compound, three days
Procedure: Experimental Example 4: In Vitro Proliferation Suppression Test
The proliferation suppressive activity of compound in A2780 cells was evaluated by the following method.
A2780 cells were seeded in a 384-well white plate at a cell density of 1,000 cells/40 μL/well or a 96-well white plate at a cell density of 1,000 cells/90 μL/well using an assay medium (RPMI1640 medium containing 10% fetal bovine serum (FUJIFILM Wako Pure Chemical Corporation)) and incubated at 37° C. in 5% CO2.
The next day, a test compound dissolved in dimethyl sulfoxide (DMSO) was diluted with an assay medium, the obtained compound solution was added by 40 μL/well or 10 μL/well to each well of the plate containing A2780 cells and the mixture was incubated (test compound addition group). In addition, a similar reaction was performed without adding the test compound (test compound non-addition group).
Three days later, 80 μL or 100 μL of CellTiter-Glo reagent (Promega) was added, and the mixture was stirred for 10 min. Thereafter, the luminescence of each well was measured by ARVO-MX multilabel counter (Perkin Elmer Inc.).
The proliferation inhibitory rate (%) of each test compound against A2780 cells was calculated by the following calculation formula. Proliferation inhibitory rate (%)=(1−luminescence of test compound addition group÷luminescence of test compound non-addition group)×100
The A2780 cell proliferation inhibitory rate (%) of 1 μM test compound is shown below.

CDK12/CycK enzyme = CDK12/CycK enzyme (Homo sapiens, UniProt Q9NYV4); assay: Measurement of CDK12/CycK inhibitory activity (ULight-4E-BP1 peptide phosphorylation, LANCE); type: biochemical; details: inhibitory rate against CDK12/CycK at 1 μM test compound, ATP 10 μM or 500 μM
Sequence of CDK12/CycK enzyme (Q9NYV4 whole entry, species assumed): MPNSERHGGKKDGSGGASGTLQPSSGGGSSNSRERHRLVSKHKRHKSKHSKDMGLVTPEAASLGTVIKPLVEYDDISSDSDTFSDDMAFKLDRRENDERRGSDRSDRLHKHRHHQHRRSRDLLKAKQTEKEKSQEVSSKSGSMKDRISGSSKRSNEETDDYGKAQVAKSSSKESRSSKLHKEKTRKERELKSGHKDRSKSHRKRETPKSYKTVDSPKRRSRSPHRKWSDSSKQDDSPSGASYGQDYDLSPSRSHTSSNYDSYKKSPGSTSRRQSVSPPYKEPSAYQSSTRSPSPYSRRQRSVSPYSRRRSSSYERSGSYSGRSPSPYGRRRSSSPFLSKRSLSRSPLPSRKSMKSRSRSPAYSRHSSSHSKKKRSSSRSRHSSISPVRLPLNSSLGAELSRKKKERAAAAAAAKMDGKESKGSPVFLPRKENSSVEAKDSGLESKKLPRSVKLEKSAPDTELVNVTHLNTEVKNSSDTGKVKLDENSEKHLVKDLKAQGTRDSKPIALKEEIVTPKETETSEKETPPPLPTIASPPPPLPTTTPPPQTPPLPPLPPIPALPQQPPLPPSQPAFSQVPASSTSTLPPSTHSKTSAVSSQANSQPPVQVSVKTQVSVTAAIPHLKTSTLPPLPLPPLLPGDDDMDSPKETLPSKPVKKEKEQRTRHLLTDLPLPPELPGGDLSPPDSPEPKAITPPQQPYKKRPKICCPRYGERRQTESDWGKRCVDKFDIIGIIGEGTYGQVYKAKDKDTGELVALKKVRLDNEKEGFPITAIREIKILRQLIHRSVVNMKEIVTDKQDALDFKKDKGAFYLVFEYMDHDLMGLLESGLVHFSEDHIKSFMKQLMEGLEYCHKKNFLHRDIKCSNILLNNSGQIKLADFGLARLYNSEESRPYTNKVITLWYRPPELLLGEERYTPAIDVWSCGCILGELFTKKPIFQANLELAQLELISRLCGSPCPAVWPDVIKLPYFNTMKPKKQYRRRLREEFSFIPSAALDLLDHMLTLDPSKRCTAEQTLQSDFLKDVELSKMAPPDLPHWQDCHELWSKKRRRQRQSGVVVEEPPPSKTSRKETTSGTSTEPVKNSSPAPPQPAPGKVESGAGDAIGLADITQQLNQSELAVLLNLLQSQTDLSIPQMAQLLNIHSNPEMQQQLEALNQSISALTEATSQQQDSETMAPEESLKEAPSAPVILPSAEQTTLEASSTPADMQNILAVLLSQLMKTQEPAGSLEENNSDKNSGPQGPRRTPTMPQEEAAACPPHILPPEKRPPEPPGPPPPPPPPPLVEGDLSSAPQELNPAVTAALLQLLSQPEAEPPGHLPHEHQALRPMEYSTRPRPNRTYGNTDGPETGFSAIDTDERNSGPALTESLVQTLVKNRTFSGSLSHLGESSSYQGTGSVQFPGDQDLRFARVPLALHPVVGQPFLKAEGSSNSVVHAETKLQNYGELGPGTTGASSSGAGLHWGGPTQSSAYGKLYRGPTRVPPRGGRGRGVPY
Sequence of CDK12/CycK enzyme (O75909 whole entry partner, species assumed): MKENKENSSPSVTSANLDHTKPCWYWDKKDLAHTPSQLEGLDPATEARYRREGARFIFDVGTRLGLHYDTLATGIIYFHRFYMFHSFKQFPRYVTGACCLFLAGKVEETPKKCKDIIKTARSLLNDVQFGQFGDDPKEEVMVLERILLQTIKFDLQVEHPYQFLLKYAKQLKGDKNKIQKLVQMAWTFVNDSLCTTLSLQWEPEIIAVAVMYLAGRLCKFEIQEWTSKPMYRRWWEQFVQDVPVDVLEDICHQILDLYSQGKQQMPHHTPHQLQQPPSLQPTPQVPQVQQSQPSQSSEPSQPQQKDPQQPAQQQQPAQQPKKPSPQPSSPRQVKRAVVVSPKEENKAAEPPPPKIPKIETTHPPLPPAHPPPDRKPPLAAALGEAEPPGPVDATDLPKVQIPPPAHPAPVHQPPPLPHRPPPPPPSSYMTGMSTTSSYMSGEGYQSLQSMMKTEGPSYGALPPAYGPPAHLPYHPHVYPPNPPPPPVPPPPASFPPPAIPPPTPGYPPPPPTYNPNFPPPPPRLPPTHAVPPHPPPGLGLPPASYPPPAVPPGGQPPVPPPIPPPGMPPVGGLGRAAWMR
Procedure: Experimental Example 2: Measurement of CDK12/CycK Inhibitory Activity
A test compound dissolved in DMSO was added to a reaction solution (50 mM HEPES (pH 7.5), 10 mM MgCl2, 1 mM DTT, 0.01% Tween 20, 0.01% BSA) containing CDK12/CycK enzyme and ULight-labeled eIF4E-binding protein 1 (4E-BP1) (Thr37/Thr46) peptide (PerkinElmer), and the mixture was reacted at room temperature for 60 min. […] was added to give an ATP solution with a final concentration of 10 μM or 500 μM to start the enzyme reaction, and the mixture was reacted at room temperature for 60 min. A LANCE Detection buffer (PerkinElmer) containing europium-labeled anti-phosphorylation 4E-BP1 (Thr37/Thr46) antibody (PerkinElmer) and EDTA (final concentration 10 mM) was added to discontinue the reaction. After standing for 60 min, time decomposition fluorescence value (excitation 320 nm, emission 615 nm, 665 nm) was measured by Envision (PerkinElmer). The inhibitory rate (%) of the test compound against CDK12/CyclinK was calculated by the following formula. Inhibitory rate (%)=(1−(count of test compound−blank)÷(control−blank))×100
The count of the CDK12 enzyme reaction mixture under compound non-addition conditions is indicated as control, and the count under compound non-addition and CDK12/CycK enzyme non-addition conditions is indicated as blank.
The results measured by the above-mentioned method (inhibitory rate (%) of the signal value at 1 μM test compound relative to control is shown below.

[2] = tested on: A2780 intracellular CTD pSer2; assay: CTD pSer2 measurement using human ovarian cancer cell A2780 and In-Cell Western method; type: cell-based; details: inhibitory rate against A2780 intracellular CTD pSer2 at 1 μM test compound, 4 hr
Procedure: Experimental Example 3: CTD pSer2 Measurement Using Human Ovarian Cancer Cell A2780 and In-Cell Western Method
A2780 cells (ATCC) were seeded in a 96 well plate at 1.8×10^4 cells/well, and the cells were cultured overnight in a cell culture medium RPMI1640 (FUJIFILM Wako Pure Chemical Corporation) containing 10% FBS (fetal bovine serum) and 1% penicillin/streptomycin. A test compound dissolved in a cell medium was added, and the mixture was stood for 4 hr in a CO2 incubator (37° C.). The cells were fixed with ALTFiX (Falma) for 30 min, and washed 3 times with a washing buffer (20 mM Tris-HCl (pH 7.5), 500 mM NaCl, 0.1% Tween20). 0.1% Triton-X-100 diluted with PBS(−) was added and the mixture was incubated at room temperature for 15 min. Thereafter, a blocking buffer (LI-COR) was added, and the mixture was incubated at room temperature for 1 hr. An anti-CTD pS2 antibody (Abcam) suspended in an antibody diluent (blocking buffer: PBS(−)-diluted 0.1% Tween20=1:1) was added, and the mixture was incubated at room temperature for 1 hr. The mixture was […] with a washing buffer, IRDye800CW-labeled anti-goat antibody (LI-COR) was added, and the mixture was incubated at room temperature for 1 hr. The mixture was washed 3 times with a washing buffer, and the fluorescence wavelength at 800 nm was measured by Aerius (LI-COR).
The inhibitory rate (%) of the test compound against A2780 intracellular CTD pSer2 was calculated by the following formula. Inhibitory rate (%)=(1−(count of test compound−blank)÷(control−blank))×100
The count of the A2780 cell under compound non-addition conditions is indicated as control, and the count under compound non-addition and primary antibody non-addition conditions is indicated as blank.
The results measured by the above-mentioned method (inhibitory rate of the signal value at 1 μM test compound relative to control) are shown below.

CDK12/CycK complex [3] = molecular target: T1, CDK12/CycK complex; assay: Measurement of CDK12 inhibitory activity by binding assay (BODIPY-FL labeled AT-7519 high concentration conditions, 1320 nM); details: inhibitory rate against CDK12 at 1 μM test compound, 1320 nM BODIPY-FL-labeled AT-7519, 8 nM CDK12/CycK
Procedure: (4) Measurement of CDK12 Inhibitory Activity by Binding Assay (BODIPY-FL Labeled AT-7519 High Concentration Conditions)
as §1, with “complex was blended with a binding” for “complex was added to a binding”, “biotin-labeled anti-histidine antibody. This solution” for “biotin-labeled anti-histidine antibody, and the mixture was stood for not less than 60 min at room temperature. This solution”, “set to 8 nM, 1320” for “set to 2 nM, 66”, “8 nM, 1320 nM, 0.2” for “2 nM, 66 nM, 0.2”
as §2
The TR-FRET ratio of the CDK12 enzyme reaction mixture under compound non-addition conditions is indicated as control, and the TR-FRET ratio under 30 μM AT-7519 addition conditions is indicated as blank.
The inhibitory rate of the test compound against CDK12 at 1 μM is shown below.

T1 sequence (Q9NYV4 whole entry, species assumed): as the sequence (Q9NYV4 whole entry, species assumed) above
T1 sequence (O75909 whole entry partner, species assumed): as the sequence (O75909 whole entry partner, species assumed) above

| Structure (SMILES) | inhibition at 1 µM (CDK12/CycK complex [1]) | inhibition at 1 µM (CDK12/CycK enzyme) | inhibition at 1 µM (CDK12/CycK complex [3]) | inhibition at 1 µM (A2780 cells) | inhibition at 1 µM [2] |
| --- | --- | --- | --- | --- | --- |
| Cn1cc(-c2cnc(N(C(=O)NCc3ccccc3)[C@H]3CC[C@H](Nc4ncc(C#N)c(NC5COC5)n4)CC3)nc2)cn1 [Example 575, 3-benzyl-1-(trans-4-((5-cyano-4-(oxetan-3-ylamino)pyrimidin-2-yl)amino)cyclohexyl)-1-(5-(1-methyl-1H-pyrazol-4-yl)pyrimidin-2-yl)urea] | 101% | 97% | – | 99% | 63% |
| COc1ncc(-c2cnc(N(C(=O)OCc3ccccc3)[C@H]3CC[C@H](Nc4ncc(C#N)c(N5CCCC(O)CC5)n4)CC3)nc2)cn1 (stereo partly drawn) [Example 611, benzyl (trans-4-((5-cyano-4-(4-hydroxyazepan-1-yl)pyrimidin-2-yl)amino)cyclohexyl) (2′-methoxy-5,5′-bipyrimidin-2-yl)carbamate] | 101% | 101% | – | 97% | 48% |
| COc1ncc(-c2ccc(N(C(=O)OCc3ccccc3)[C@H]3CC[C@H](Nc4ncc(C#N)c(N5CC(F)(CO)C5)n4)CC3)nc2)cn1 [Example 603, benzyl (trans-4-((5-cyano-4-(3-fluoro-3-(hydroxymethyl)-azetidin-1-yl)pyrimidin-2-yl)amino)cyclohexyl) (5-(2-methoxypyrimidin-5-yl)pyridin-2-yl)carbamate] | 76% | 103% | – | 93% | 81% |
| Cn1cc(-c2ccc(N(C(=O)NCc3ccccc3)[C@H]3CC[C@H](Nc4ncc(C#N)c(NC5(C)COC5)n4)CC3)nc2)cn1 [Example 605, 3-benzyl-1-(trans-4-((5-cyano-4-((3-methyloxetan-3-yl)amino)-pyrimidin-2-yl)amino)cyclohexyl)-1-(5-(1-methyl-1H-pyrazol-4-yl)pyridin-2-yl)urea] | 90% | 100% | – | 98% | 73% |

Further lines, with some results ahead:

| inhibition at 1 µM (CDK12/CycK complex [1]) | inhibition at 1 µM (CDK12/CycK enzyme) | inhibition at 1 µM (CDK12/CycK complex [3]) | Structure (SMILES) | inhibition at 1 µM (A2780 cells) | inhibition at 1 µM [2] |
| --- | --- | --- | --- | --- | --- |
| – | – | 81% | COc1ncc(-c2cnc(N(C(=O)NCC(F)(F)F)[C@H]3CC[C@H](Nc4ncc(C(F)(F)F)c(-c5n[nH]cc5Cl)n4)CC3)cn2)cn1 [Example 743, 1-(trans-4-((4-(4-chloro-1H-pyrazol-3-yl)-5-(trifluoromethyl)pyrimidin-2-yl)amino)cyclohexyl)-1-(5-(2-methoxypyrimidin-5-yl)pyrazin-2-yl)-3-(2,2,2-trifluoroethyl)urea] | 95% | – |
| – | – | 79% | COc1ncc(-c2cnc(N(C(=O)OCC(C)(C)O)[C@H]3CC[C@H](Nc4ncc(C(F)(F)F)c(-c5n[nH]cc5Cl)n4)CC3)cn2)cn1 [Example 841, 2-hydroxy-2-methylpropyl (trans-4-((4-(4-chloro-1H-pyrazol-3-yl)-5-(trifluoromethyl)pyrimidin-2-yl)amino)cyclohexyl) (5-(2-methoxypyrimidin-5-yl)pyrazin-2-yl)carbamate] | 99% | – |
| – | – | 92% | CCCC(=O)N(c1cnc(-c2cnc(OC)nc2)cn1)[C@H]1CC[C@H](Nc2ncc(C(F)(F)F)c(-c3cncc(S(C)(=O)=O)c3)n2)CC1 [Example 798, N-(trans-4-((4-(5-(methanesulfonyl)pyridin-3-yl)-5-(trifluoromethyl)pyrimidin-2-yl)amino)cyclohexyl)-N-(5-(2-methoxypyrimidin-5-yl)pyrazin-2-yl)butanamide] | 99% | – |
| – | – | 109% | CCOCC(=O)N(c1cnc(-c2cnc(OC)nc2)cn1)[C@H]1CC[C@H](Nc2ncc(C(F)(F)F)c(-c3cncc(S(C)(=O)=O)c3)n2)CC1 [Example 827, 2-ethoxy-N-(trans-4-((4-(5-(methanesulfonyl)pyridin-3-yl)-5-(trifluoromethyl)pyrimidin-2-yl)amino)cyclohexyl)-N-(5-(2-methoxypyrimidin-5-yl)pyrazin-2-yl)acetamide] | 99% | – |
| – | – | 102% | COc1ncc(-c2cnc(N(C(=O)OCCN(C)C)[C@H]3CC[C@H](Nc4ncc(C(F)(F)F)c(-c5cncc(S(C)(=O)=O)c5)n4)CC3)cn2)cn1 [Example 767, 2-(dimethylamino)ethyl (trans-4-((4-(5-(methanesulfonyl)pyridin-3-yl)-5-(trifluoromethyl)pyrimidin-2-yl)amino)cyclohexyl) (5-(2-methoxypyrimidin-5-yl)pyrazin-2-yl)carbamate] | 99% | – |
